According to US20210220450A1, “TREATMENT OF AN IOP CONDITION” (The Research Foundation for The State University of New York, priority 2013, published 2021):

Legend:
[1] = tested on: C57/1B6 mice; test: Outflow facility in TA-treated mice injected intracamerally with AdPLAT (Example 1); format: in vivo
Method: Methods: Adenoviral vectors carrying cDNA of the sheep PLAT gene and a fluorescent reporter gene (mCherry) (AdPLAT) or with no transgene (AdNull) were created. Transgene expression was driven by the CMV promoter. 3 groups of C57/1B6 mice received either: (1) 20 μl of triamcinolone acetonide (TA) suspension (40 mg/ml) subconjunctivally bilaterally followed immediately by unilateral intracameral injection with 2 μl AdPLAT (3-4×10^12 VG/ml); (2) 20 μl TA subconjunctivally bilaterally followed one week later by unilateral intracameral injection with 2 μl AdPLAT; or (3) 20 μl TA subconjunctivally bilaterally followed immediately by bilateral injection with 2 μl adenovirus AdNull. IOP was measured preterminally. Outflow facility was determined using simultaneous pressure and flow measurements (see FIGS. 2A-2C). After outflow facility measurement, all AdPLAT injected eyes were dissected and viewed under a fluorescent microscope to inspect for mCherry expression in the trabecular meshwork (TM).

[2] = tested on: C57BL/6J mice; test: Outflow facility in TA and adenovirus treated C57BL/6J mouse eyes (Example 12); format: in vivo; details: TA exposed eyes vs naïve C57BL/6J
Method: Steroid, adenoviral and protein injections. Intracameral adenovirus and intravitreal protein injections were performed using a 10 μl Hamilton syringe with 36-gauge stainless steel needles (WPI Inc, Sarasota, Fla., USA) while subconjunctival injections were performed using a 100 μl Hamilton Syringe with 26-gauge needles (Precision Glide, Becton Dickinson & CO, Franklin Lakes, N.J., USA). All injections were performed under isoflurane inhalation anesthesia and topical anesthesia with 0.5% proparacaine. C57BL/6J mice undergoing adenovirus treatment received bilateral injections with 20 μl of triamcinolone acetonide (TA) suspension (40 mg/ml, Kenalog-40; Bristol-Myers Squibb, NY, USA) subconjunctivally immediately prior to the intracameral adenovirus injection. Animals were then divided into three groups (FIG. 10a): […]
Outflow facility determination: Mouse eyes were enucleated immediately after euthanasia. Outflow facility was determined using a constant pressure method, as previously described. […] Flow was constantly measured via a microfluidic flow sensor (0.07-1.5 uL/min, MFS1; Elveflow, Paris, France). […] Any eyes that developed visible leaks during outflow facility determination, or that had pressure-flow correlations with R^2<0.9, were excluded from analysis but were used for RNA quantification.

[3] = tested on: Mmp-2, Mmp-9, Mmp-13; test: Mmp expression in Tg-MYOCY437H angle ring tissue (Example 19); format: in vivo, mouse; details: 5 days, vs BSA treated eyes
Method: Eyes were flash frozen in liquid nitrogen after outflow facility determination and subsequently dissected on ice to obtain the angle ring tissues containing the TM, as previously described (Kumar, Shah et al. 2013). Dissected TM tissues were immersed in RNAlater solution (Invitrogen, Waltham, Mass., USA) and then snap-frozen and stored at −80° C. until RNA extraction. Tissue collected was pooled (four eyes) and homogenized in TRIzol reagent for RNA isolation, per manufacturer's instructions (Life Technologies, Carlsbad, Calif., USA). RNA concentration was determined with a Nanodrop ND-1000 Spectrophotometer (Thermo Scientific, Wilmington, Del., USA). cDNA was synthesized by using High-Capacity cDNA Reverse Transcription Kit (Applied Biosystems, Waltham, Mass., USA) according to manufacturer's protocol. Quantitative real-time PCR (qRT-PCR) was performed by using Green-2-Go qPCR Mastermix-ROX (Bio Basic, Amherst, N.Y., USA) on a QuantStudio 6 Flex thermal cycler (Applied Biosystems, Carlsbad, Calif., USA). mRNA expression of Plat, Plau, Pai-1, Mmp-2, Mmp-9, and Mmp-13 in angle ring tissues was determined. Primers were designed by using Primer-BLAST (https://www.ncbi.nlm.nih.gov/tools/primer-blast/index.cgi?LINK_LOC=BlastHome; in the public domain); primer sequences are listed in Table 2. Primer specificity was confirmed by agarose gel electrophoresis and multiple-sized amplification products were absent on inspection of melting curves. Target mRNA expression values were normalized to the expression levels of Rps11 (ribosomal protein S11). The relative fold change was calculated by using the ΔΔCt method (Hu, Wang et al. 2015). Outliers identified via the Thompson Tau test were removed from analysis.

[4] = tested on: sheep of the Corriedale breed; test: Steroid-induced IOP elevation in sheep, intravitreal tPA (Examples 3, 4); format: in vivo
Method: Protocol 1. 8 sheep of the Corriedale breed were treated with prednisolone acetate three times a day in both eyes, leading to elevated IOP. After one week, the animals received intravitreal injections of human recombinant tPA (100, 200, 500 and 1000 μg, two animals each) dissolved in balanced salt solution (BSS) in one eye. IOP was monitored for 19 more days while the animals continued to receive treatment with prednisolone. Periodic slit lamp examination was also performed.
Protocol 2. In a second set of experiments, arginine was added to the BSS vehicle administered to the left eye to control for the relatively high concentration of the amino acid in the commercially available tPA lyophilisate. In these experiments all right eyes received 0.1 mg tPA, which concomitantly delivered 4.23 mg of arginine into the vitreous, and the left eye received this same amount of arginine, absent the tPA. On Day 1, prednisolone treatments were also begun simultaneously on both eyes.
Methods. In this experiment, the inventor sought to detect the effects of tPA treatment on prevention of steroid-induced IOP elevation. In 4 sheep tPA was injected in one eye (100 μg) and they were started on prednisolone acetate three times a day in both eyes. Animals were monitored for 11 days on continuous treatment.

[5] = tested on: PLAT; test: PLAT mRNA in HTM cells after prednisolone (Example 8); format: cell-based; details: HTM cells from two donors; as early as 1 hour after prednisolone
Source text: FIG. 8. Relative fold difference of PLAT mRNA from 18S mRNA amounts in HTM cells treated with prednisolone acetate (PA treated) or vehicle (Control) for […].

[6] = tested on: HTM cells; test: Simulated outflow facility of HTM cells in artificial conventional outflow system (ACOS) (Examples 17, 18); format: cell-based; details: PA treatment
Method: HTM cells were treated with 300 nM prednisolone acetate (PA) for 72 h to reduce outflow facility. They were then treated with either tissue plasminogen activator (tPA), non-enzymatically active tPA (NE-tPA) or bovine serum albumin (BSA) and perfused in artificial conventional outflow system (ACOS). Simulated outflow facilities (mean±standard deviation) (μl/min/mmHg/mm^2) was 2.4±0.6×10-1 for PA, 3±1.2×10-1 for PA+BSA, 7±1.2×10-1 for PA+tPA and 5.4±0.9×10-1 for PA+NE-tPA (p<0.0001, ANOVA).
HTM cells were treated with PA+NE-tPA and inhibitors of either LRP1 (RAP) or NMDA receptor (MK-801) and were perfused in ACOS. Simulated outflow facility (meant standard deviation μl/min/mmHg/mm^2) was 5.5±0.7×10-1 for PA+NE-tPA, 2.9±1.3×10-1 for PA+NE-tPA+MK-801, 2.7±1.2×10-1 for PA+NE-tPA+RAP and 3.3±1.3×10-1 for PA+NE-tPA+MK-801+RAP.

[7] = tested on: MMP-2, MMP-9, MMP-13; test: MMP expression in PA treated HTM cells (Examples 17, 18); format: cell-based
[8] = tested on: sheep of the Coriedale breed; test: Steroid-induced IOP elevation in sheep, tPA injected into the anterior chamber (Example 9); format: in vivo; details: amount of arginine associated with 0.01 ug tPA, injected alone
Method: Methods. Lyophilized tPA, obtained as Acetilyse® from Boehringer Ingelheim S. A. (Buenos Aires) containing arginine, was used. Five sheep of the Coriedale breed were selected. Initially all eyes received instillation of 1% prednisolone 3 times/day for 10 days to elevate their IOP from 10 mm Hg to about 23 mm Hg. Then, 0.0001 μg was injected into one of the eyes and its effect was followed for up to 55:00 hrs while the instillation of prednisolone continued in both eyes. The same protocol was implemented for the 0.001 and 0.01 μg amounts (after extended washout) in the contra lateral eyes. Arginine, which is associated with 0.01 ug tPA, was injected alone and had no effect.

[9] = added to PA+NE-tPA, vs PA+NE-tPA treated cells

CC1(C)O[C@@H]2C[C@H]3[C@@H]4CCC5=CC(=O)C=C[C@]5(C)[C@@]4(F)[C@@H](O)C[C@]3(C)[C@]2(C(=O)CO)O1 [TA, triamcinolone acetonide]
outflow facility, mean±SD ([1]; TA only eyes, two weeks of TA, n=24): 0.0067±0.0028 μl/min/mmHg | outflow facility, mean±SD ([1]; contralateral eyes injected with TA alone, concurrent experiment, n=22): 0.0060±0.0025 μl/min/mmHg | reduction in outflow facility from baseline [2]: ~46%

O=C([O-])CCCc1ccccc1.[Na+] [PBA, sodium phenylbutarate, reference compound]
Mmp-2 expression [3]: no significant difference | Mmp-9 expression [3]: higher | Mmp-13 expression [3]: did not show any difference

CC(=O)OCC(=O)[C@@]1(O)CC[C@H]2[C@@H]3CCC4=CC(=O)C=C[C@]4(C)[C@H]3[C@@H](O)C[C@@]21C [prednisolone, prednisolone acetate, reference compound]
mean (±SD) IOP ([4]; prednisolone for 10 days, baseline 10.2 (±1.1) mmHg): 24.1(±1.6) mmHg | PLAT expression [5]: downregulation | reduction in outflow facility compared to baseline [6]: ~73% | MMP-13 mRNA ([7]; PA treated HTM cells): below detectable limits

N=C(N)NCCC[C@H](N)C(=O)O [arginine, reference compound]
effect of arginine alone on steroid-increased IOP ([4]; 4.23 mg arginine intravitreal, prednisolone): does not alter | effect of arginine alone on outflow facility ([4]; eye receiving arginine plus prednisolone (OS)): failed to reduce | effect of arginine alone on IOP [8]: had no effect

C[C@]12N[C@H](Cc3ccccc31)c1ccccc12 [MK-801, reference compound]
MMP-2 expression [7, 9]: significantly lower | MMP-9 expression [7, 9]: significantly lower
